Substitutions are numbered along the chain they refer to.

Common to all, as to format: binding
For assay [1], the target named is T1, BjPutA (proline utilization A) (Bradyrhizobium diazoefficiens, UniProt Q89E26).
T1 sequence (Q89E26 1-999): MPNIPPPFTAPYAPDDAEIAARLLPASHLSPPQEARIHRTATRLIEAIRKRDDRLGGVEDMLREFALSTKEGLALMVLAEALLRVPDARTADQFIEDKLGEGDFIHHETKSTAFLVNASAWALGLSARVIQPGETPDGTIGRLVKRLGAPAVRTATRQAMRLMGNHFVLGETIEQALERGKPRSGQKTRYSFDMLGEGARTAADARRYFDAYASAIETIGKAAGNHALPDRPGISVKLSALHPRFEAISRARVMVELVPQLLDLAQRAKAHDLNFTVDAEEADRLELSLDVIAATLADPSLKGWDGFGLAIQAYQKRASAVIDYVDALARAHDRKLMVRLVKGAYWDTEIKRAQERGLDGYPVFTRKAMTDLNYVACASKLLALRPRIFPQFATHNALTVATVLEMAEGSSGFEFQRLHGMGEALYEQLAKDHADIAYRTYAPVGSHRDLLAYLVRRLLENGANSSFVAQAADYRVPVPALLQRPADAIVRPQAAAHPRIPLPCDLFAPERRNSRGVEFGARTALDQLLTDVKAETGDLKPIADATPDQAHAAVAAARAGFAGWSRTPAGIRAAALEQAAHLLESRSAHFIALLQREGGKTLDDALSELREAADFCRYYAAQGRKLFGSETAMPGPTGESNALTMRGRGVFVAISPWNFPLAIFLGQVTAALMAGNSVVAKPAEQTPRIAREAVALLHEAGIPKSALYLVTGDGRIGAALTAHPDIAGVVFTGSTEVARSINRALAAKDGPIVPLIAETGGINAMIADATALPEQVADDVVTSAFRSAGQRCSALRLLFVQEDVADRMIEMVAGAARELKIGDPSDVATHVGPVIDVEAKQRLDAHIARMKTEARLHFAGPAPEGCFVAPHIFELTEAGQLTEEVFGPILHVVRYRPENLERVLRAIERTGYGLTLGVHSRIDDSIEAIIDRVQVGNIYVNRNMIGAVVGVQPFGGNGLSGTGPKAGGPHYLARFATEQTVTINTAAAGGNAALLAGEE
Nature of the assay: intrinsic tryptophan fluorescence quenching, single-site fit.

The target of assay [2] is T2, BjPutA (proline utilization A) (Bradyrhizobium diazoefficiens, UniProt Q89E26, T348Y).
T2 sequence (Q89E26 1-999 T348Y): T1 sequence (Q89E26 1-999) with T348Y
As to the kind of experiment: intrinsic tryptophan fluorescence quenching.

In assay [3] the target is T3, BjPutA (proline utilization A) (Bradyrhizobium diazoefficiens, UniProt Q89E26, D779W).
T3 sequence (Q89E26 1-999 D779W): T1 sequence (Q89E26 1-999) with D779W
As to the kind of experiment: intrinsic tryptophan fluorescence quenching.

Take `NC(=O)c1ccc[n+]([C@@H]2O[C@H](COP(=O)(O)OP(=O)(O)OC[C@H]3O[C@@H](n4cnc5c(N)ncnc54)[C@H](O)[C@@H]3O)[C@@H](O)[C@H]2O)c1` [NAD^+]: the Kd in assay [1] came to 600 ± 40 nM; in assay [2], 750 ± 60 nM; in assay [3], 780 ± 50 nM.

For orientation: Kd means the free concentration of one partner at which half of the binding sites on the other are occupied at equilibrium, for simple one-to-one binding. A higher Kd goes with lower affinity.

(Values after publication PMC4131897 (Biochemistry, 2014).)
